We go through four molecules from PMC7357490, “Ancestral Resurrection and Directed Evolution of Fungal Mesozoic Laccases” (Applied and Environmental Microbiology, 2020).

In assay [1] the target is T1, OB-1 (basidiomycete PM1, UniProt Q12571, V183A/H229Y/S245G/A260P/D302E/S447N/A482T, form not given).
T1 construct: N-terminal extension from leader processing (EAEA site) possible
The assay is described as follows: spectrophotometric steady-state kinetics, […] nm. It is filed as biochemical. The conditions noted are these: room temperature; 100 mM sodium phosphate/citrate pH 5.0; air O2 as co-substrate.

For assay [2], the system named is LacAnc100. The assay is described as follows: spectrophotometric steady-state kinetics, […] nm. It is filed as biochemical, synthetic construct. Conditions: room temperature; 100 mM sodium phosphate/citrate pH 5.0; air O2 as co-substrate.
In assay [3] the test system is LacAnc98. The assay is described as follows: spectrophotometric steady-state kinetics, […] nm. The conditions noted are these: room temperature; 100 mM sodium phosphate/citrate pH 5.0; air O2 as co-substrate. It is filed as biochemical, synthetic construct.
The subject of assay [4] is LacAnc98. The assay is described as follows: spectrophotometric steady-state kinetics, […] nm. The format is biochemical, synthetic construct. The conditions noted are these: room temperature; 100 mM sodium phosphate/citrate pH 5.0; air O2 as co-substrate. The source holds these as a separate data set.
Assay [5] deals with T1, OB-1. The assay is described as follows: spectrophotometric steady-state kinetics, […] nm. The format is biochemical. The conditions noted are these: room temperature; 100 mM sodium phosphate/citrate pH 5.0; air O2 as co-substrate. The source holds these as a separate data set.
Assay [6] relates to LacAnc100. The assay is described as follows: spectrophotometric steady-state kinetics, […] nm. The format is biochemical, synthetic construct. The conditions noted are these: room temperature; 100 mM sodium phosphate/citrate pH 5.0; air O2 as co-substrate. The source holds these as a separate data set.
Assay [7] deals with LacAnc100. The assay is described as follows: spectrophotometric steady-state kinetics, […] nm. It is filed as biochemical, synthetic construct. The conditions noted are these: room temperature; 100 mM sodium phosphate/citrate pH 5.0; air O2 as co-substrate. The source holds these as a separate data set.
Assay [8] has as its system LacAnc98. The assay is described as follows: spectrophotometric steady-state kinetics, […] nm. The format is biochemical, synthetic construct. The conditions noted are these: room temperature; 100 mM sodium phosphate/citrate pH 5.0; air O2 as co-substrate. The source holds these as a separate data set.
In assay [9] the target is T1, OB-1. The assay is described as follows: spectrophotometric steady-state kinetics, […] nm. The format is biochemical. The conditions noted are these: room temperature; 100 mM sodium phosphate/citrate pH 5.0; air O2 as co-substrate. This is another data set of the same source.
In assay [10] the test system is LacAnc98. The conditions noted are these: read-out: LacAnc98; room temperature; 100 mM sodium phosphate/citrate pH 4.0; air O2 as co-substrate.
Assay [11] concerns LacAnc100. The conditions noted are these: read-out: LacAnc100; room temperature; 100 mM sodium phosphate/citrate pH 4.0; air O2 as co-substrate.

Like-named read-outs stand apart in the source and are kept apart here.

T1 sequence (Q12571 entry or part of it V183A/H229Y/S245G/A260P/D302E/S447N/A482T, form open): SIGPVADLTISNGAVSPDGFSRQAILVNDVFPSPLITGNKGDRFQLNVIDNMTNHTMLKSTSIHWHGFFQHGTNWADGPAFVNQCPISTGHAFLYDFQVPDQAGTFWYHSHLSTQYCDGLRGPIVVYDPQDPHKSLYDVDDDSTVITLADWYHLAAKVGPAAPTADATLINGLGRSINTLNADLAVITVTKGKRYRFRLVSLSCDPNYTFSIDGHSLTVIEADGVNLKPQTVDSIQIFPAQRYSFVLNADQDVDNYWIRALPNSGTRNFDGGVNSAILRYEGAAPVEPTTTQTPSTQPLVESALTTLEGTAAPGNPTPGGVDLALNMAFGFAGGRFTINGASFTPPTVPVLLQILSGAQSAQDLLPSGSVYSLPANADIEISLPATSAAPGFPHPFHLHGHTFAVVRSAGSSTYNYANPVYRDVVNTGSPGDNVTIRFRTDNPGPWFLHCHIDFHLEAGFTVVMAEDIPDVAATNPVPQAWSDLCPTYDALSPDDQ

As to `COc1cccc(OC)c1O` [DMP], the Km on OB-1 [1] stood at 150 ± 10 µM; in the assay on LacAnc100 [2], 500 ± 20 µM; with LacAnc98 [3], 420 ± 20 µM.

On to `COc1cc(/C=C/C(=O)O)cc(OC)c1O` [Sinapic acid], for which the figures for the Km in the assay on LacAnc98 [4], at OB-1 [5] and with LacAnc100 [6] were 230 ± 40 µM, 320 ± 20 µM and 330 ± 70 µM, respectively.

Consider `COc1ccccc1O` [Guaiacol], for which the figures for the Km in the assay with LacAnc100 [7], in the assay with LacAnc98 [8] and on OB-1 [9] were 6700 ± 700 µM, 8700 ± 300 µM and 2600 ± 400 µM, respectively.

For `CCn1c(=NN=c2sc3cc(S(=O)(=O)O)ccc3n2CC)sc2cc(S(=O)(=O)O)ccc21` [ABTS], the results for the Km in the assay with LacAnc98 [10] and in the assay with LacAnc100 [11] were 69 ± 2 µM and 60 ± 1 µM, respectively.
